Measurements: patent publication US20070065485A1, “Therapeutic delivery of carbon monoxide” (priority 2003, published 2007)
Where two headings read alike, the source gives them in different places.

Experiments:
[1] = tested on: aortic rings pre-contracted with phenylephrine; assay: Isolated aortic ring preparation: vessel relaxation in rings pre-contracted with phenylephrine (3 μM); format: cell-based, male Lewis rats; details: for percentage of relaxation compared to control: after 10 min
Description: Transverse ring sections of thoracic aorta were isolated from male Lewis rats and suspended under a 2 g tension in an organ bath containing oxygenated Krebs-Henseleit buffer at 37° C. in a manner previously described^10. The relaxation response to CORM-A1 (40, 80 and 160 μM) was assessed in aortic rings pre-contracted with phenylephrine (3 μM). […] Experiments were also conducted by comparing the effect of CORM-A1 and CORM-3 on vessel relaxation over time.

deoxymyoglobin (Mb) [2] = details: cited from earlier work
[3] = distilled water at basic pH; cited from earlier work
[4] = tested on: mean arterial pressure (MAP); assay: Effect of CORM-A1 and YC-1 on mean arterial pressure (MAP) in anaesthetised rats; format: in vivo, Lewis rats
Description: Lewis rats (280-350 g) were anaesthetised by intramuscular injection of 1 ml/kg Hypnorm. Specially designed femoral artery and venous catheters were then surgically implanted and mean arterial pressure (MAP) monitored continuously using a polygraph recorder in a manner previously described. The effect of CORM-A1 on mean arterial pressure (MAP) over time was assessed following an intravenous (i.v.) injection of 50 μmol kg^−1. Similar experiments were conducted by administering YC-1 (1.2 μmol kg^−1, i.v.) to animals 5 min prior to the bolus addition of CORM-A1. Control experiments using YC-1 alone were also performed.
Femoral artery and venous catheters were surgically implanted into anesthetized Lewis rats and blood pressure continuously monitored as previously described by us. The effect of CORM-A1 and YC-1 on mean arterial pressure (MAP) in vivo is represented in FIG. 11. The compounds were injected intravenously as a bolus at a final concentration of 50 μmoles/kg for CORM-A1 and 1.2 μmol kg^−1 for YC-1. When the two compounds were given in combination, YC-1 was administered 10 min prior to CORM-A1 injection. As shown, CORM-A1 produced a gradual and sustained decrease in MAP over time; for instance, 60 min after CORM-A1 injection MAP decreased by 6.3±1.5 mmHg from the initial baseline value. Injection with YC-1 alone also produced an effect on blood pressure; however, the decrease in MAP was only transient, reaching a maximum of 5.5±1.0 mmHg after 10 min and returning to basal levels 50 min after injection. […] The data are represented as the mean±s.e.m. of 5 independent experiments for each group. *P<0.05 vs. baseline (−10 min); ^⇑P<0.05 vs. CORM-A1 alone or YC-1 alone.

deoxymyoglobin (Mb) [5] = assay: Detection of CO release: conversion of deoxymyoglobin (Mb) to carbonmonoxy myoglobin (MbCO); format: physicochemical
Description: The release of CO from CORM-A1 was assessed spectrophotometrically by measuring the conversion of deoxymyoglobin (Mb) to carbonmonoxy myoglobin (MbCO) by a method previously described^23. The amount of MbCO formed was quantified by measuring the absorbance at 540 nm (extinction coefficient=[…]) over time at 37° C. Myoglobin solutions (approximately 50 μmol/L final concentration) were prepared fresh by dissolving the protein in 0.04 M phosphate buffer (pH=7.4). Sodium dithionite (0.1%) was added to convert the oxidized myoglobin to its reduced form prior to each reading. Some experiments were also conducted using Mb at pH=5.5 or at room temperature (RT) in order to examine the kinetic of CO release from CORM-A1 under different chemical and physical conditions.
The amount of MbCO formed after addition of CORM-A1 to the Mb solution can be quantified by measuring the absorbance at 540 nm knowing the extinction coefficient for MbCO (ε=[…]). CORM-A1 at three different concentrations was added to a solution containing Mb at room temperature and the formed MbCO was calculated over time.

[6] = tested on: aortic rings pre-contracted with phenylephrine; assay: Isolated aortic ring preparation: relaxation response to CORM-A1 in presence or absence of YC-1, phenylephrine 1 μmol/L; format: cell-based, male Lewis rats
Description: Transverse ring sections of thoracic aorta were isolated from male Lewis rats and suspended under a 2 g tension in an organ bath containing oxygenated Krebs-Henseleit buffer at 37° C. in a manner previously described. […] YC-1 was added to the isolated rings 30 min prior to contraction with phenylephrine.

NCC(=O)O.[CH+]=O.[CH+]=O.[CH+]=O.[Cl][Ru] [CORM-3, Tricarbonylchloro(glycinato)ruthenium(II)]
time after addition at which the stated relaxation was reached ([1]; 80 μM): 4 to 5 min
relaxation ([1]; 80 μM, within 4-5 min): 75%
time in which CO is liberated to Mb (deoxymyoglobin (Mb) [2]; added to a solution containing myoglobin (Mb), 1 mole CO per mole compound): 1 to 2 min
CO liberated per mole of compound (deoxymyoglobin (Mb) [2]; added to a solution containing myoglobin (Mb), within 1-2 min): 1 mole of CO per mole of compound
time of liberation of CO to Mb or in biological systems (deoxymyoglobin (Mb) [2]; from recent works): approximately 5 min

[BH3-]C(=O)[O-].[Na+].[Na+] [CORM-A1, Disodium boranocarbonate]
stability in water [3]: relatively stable
percentage of relaxation compared to control ([1]; 40 μM): 21.0±2.3%
time after addition at which the stated relaxation was reached ([1]; 80 μM): 33 min
vasorelaxation (in words) ([1]; 80 μM): gradual and profound vasorelaxation
maximal vasorelaxation ([1]; 80 μM, 33 min following addition): 96%
percentage of relaxation compared to control ([1]; 80 μM): 40.2±3.4%
percentage of relaxation compared to control ([1]; 160 μM): 74.9±1.8%
decrease in MAP from initial baseline ([4]; 50 μmoles/kg i.v. bolus, 60 min after injection): 6.3±1.5 mmHg
decrease in MAP ([4]; CORM-A1 50 μmoles/kg i.v. in combination with YC-1 1.2 μmol kg^−1 given 10 min prior, after 10 min): 16.1±5.6 mmHg
calculated Ymax of MbCO formed (deoxymyoglobin (Mb) [5]; 15.6 μM CORM-A1, room temperature): 16.7±1.2
calculated Ymax of MbCO formed (deoxymyoglobin (Mb) [5]; 31.1 μM CORM-A1, room temperature): 33.1±1.4
calculated Ymax of MbCO formed (deoxymyoglobin (Mb) [5]; 46.7 μM CORM-A1, room temperature): 48.2±2.5
conversion of Mb to MbCO (deoxymyoglobin (Mb) [5]; 60 μM, pH=7.4, 37° C., MbCO spectrum after 210 min incubation): gradual formation of MbCO over time
CO liberated per mole of compound (deoxymyoglobin (Mb) [5]; aqueous solution, room temperature, reaction to completion): one mole of CO per mole of compound
release of CO at physiological pH (deoxymyoglobin (Mb) [5]; physiological pH): 18.4 min
relaxation ([6]; 1 μM CORM-A1, vessels pre-treated with YC-1): 35±9.8%
relaxation ([6]; 10 μM CORM-A1, vessels pre-treated with YC-1): 51±3.3%
relaxation ([6]; 20 μM after pre-treatment of vessels with YC-1 (1 μM)): 61±6.2%
relaxation ([6]; 20 μM alone, after 20 min): 13±4.9%

[BH4-].[Na+] [NaBH4, Sodium borohydride, reference compound]
vasorelaxation (in words) ([1]; 80 μM): totally ineffective

OCc1ccc(-c2nn(Cc3ccccc3)c3ccccc23)o1 [YC-1, 3-(5′-hydroxymethyl-2′-furyl)-1-benzyl-indazole, reference compound]
maximum decrease in MAP ([4]; YC-1 alone 1.2 μmol kg^−1 i.v., after 10 min): 5.5±1.0 mmHg
time to return of MAP to basal levels ([4]; YC-1 alone 1.2 μmol kg^−1 i.v., after injection): 50 min
relaxation ([6]; YC-1 alone (1 μM), after 20 min): 2.8±1.1%
